{"source": "patent US20040028714A1", "about": "“Composition having insect repellent characteristics” (priority 2000, published 2004)", "test_system": "Black Ants (Ochetellus sp)", "assay": "Ant repellency on half-treated formica (Example 4)", "format": "in vivo", "details": "20 mg/m^2 on formica; for Number of Black Ants present, Treated Section / Number of Black Ants present, Untreated Section / Number of Black Ants, Dead: single replicates (n = 20); for Number of Black Ants present, Treated Section, Total / Number of Black Ants present, Untreated Section, Total / Number of Black Ants, Dead, Total: total of 4 replicates (80)", "procedure": "The effectiveness of compound 2 (example 1) as an insect repellent was determined using ants exposed to a formica surface partially treated/partially untreated with compound 2, and was directly compared to the repellency of the well known insect repellents Farnesol and Dihydrofarnesal.\nThe study was conducted in an air conditioned laboratory at a temperature of 22°±2° C. under a normal day/night cycle, using Black Ants (Ochetellus sp) of mixed sex and age. The study ws conducted over a 3 day period and the repellent effectiveness assessed 1, 2 and 3 days after ant introduction.\nOne half of a rectangle of formica 40 cm×30 cm was treated at 20 mg/m^2 with the test compounds. This was achieved by soaking a paper wipe (Rag On A Roll approximately 20 cm×20 cm) in a solution of the test compound in ethanol, squeezing out the excess liquid and wiping over the surface to give the required coverage. This was checked by weighing the cloth after application. The surface was allowed to dry. The other half was wiped with ethanol alone (untreated surface).\nThe treated formica rectangle was placed on the bench and a glass ring (diameter 20 cm) was placed on the rectangle. This had been treated with fluon to prevent ant escape.\nA small plastic container 2 cm in diameter was placed on the formica, one on the treated surface and one on the untreated surface. The plastic container placed on the treated surface had repellent applied in the same way as the treated formica. The plastic container on the untreated surface was wiped with ethanol.\n24 hours after treatment (1 day) 20 ants were added to the centre of the formica. No food and water was supplied for these ants. 2 hours after this the number of ants on the treated and untreated surfaces was counted.\nThe above was repeated 3 times to provide a total of 4 replicates.\nThe above was repeated at 2 days and 3 days. New ants were used at each time period.", "key": {"[1]": {"details": "ants, average of days 1, 2 and 3"}}, "note": "Several values for one entry are separate records, joined by “and”; a condition that tells them apart may be missing. Equal values may be shown once."}
{"smiles": "CCNC(=O)C1CC(C)CCC1C(C)C", "note": "(stereo not shown) [Compound 2, N-ethyl-p-menthane-3-carboxamide]", "values": [{"measurement": "ant repellency (in words)", "setting": "1, 2 and 3 days after treatment", "value": "superior to these two products"}, {"measurement": "Number of Black Ants present, Treated Section", "setting": "day 1", "value": "0 (2×) and 2 and 1"}, {"measurement": "Number of Black Ants present, Untreated Section", "setting": "day 1", "value": "20 (2×) and 18 and 19"}, {"measurement": "Number of Black Ants, Dead", "setting": "day 1", "value": 0}, {"measurement": "Number of Black Ants present, Treated Section, Total", "setting": "day 1", "value": 3}, {"measurement": "Number of Black Ants present, Untreated Section, Total", "setting": "day 1", "value": 77}, {"measurement": "Number of Black Ants, Dead, Total", "setting": "day 1", "value": 0}, {"measurement": "Number of Black Ants present, Treated Section", "setting": "day 2", "value": "1 and 3 (2×) and 2"}, {"measurement": "Number of Black Ants present, Untreated Section", "setting": "day 2", "value": "19 and 17 (2×) and 18"}, {"measurement": "Number of Black Ants, Dead", "setting": "day 2", "value": 0}, {"measurement": "Number of Black Ants present, Treated Section, Total", "setting": "day 2", "value": 9}, {"measurement": "Number of Black Ants present, Untreated Section, Total", "setting": "day 2", "value": 71}, {"measurement": "Number of Black Ants, Dead, Total", "setting": "day 2", "value": 0}, {"measurement": "Number of Black Ants present, Treated Section", "setting": "day 3", "value": "0 and 1 and 2 and 3"}, {"measurement": "Number of Black Ants present, Untreated Section", "setting": "day 3", "value": "20 and 19 and 18 and 17"}, {"measurement": "Number of Black Ants, Dead", "setting": "day 3", "value": 0}, {"measurement": "Number of Black Ants present, Treated Section, Total", "setting": "day 3", "value": 6}, {"measurement": "Number of Black Ants present, Untreated Section, Total", "setting": "day 3", "value": 74}, {"measurement": "Number of Black Ants, Dead, Total", "setting": "day 3", "value": 0}, {"measurement": "Percentage Dead", "setting": "ants, 1 day after treatment", "value": 0, "unit": "%"}, {"measurement": "Percentage Present, Treated Section", "setting": "ants, 1 day after treatment", "value": 3.7, "unit": "%"}, {"measurement": "Percentage Present, Untreated Section", "setting": "ants, 1 day after treatment", "value": 96.3, "unit": "%"}, {"measurement": "Percentage Dead", "setting": "ants, 2 days after treatment", "value": 0, "unit": "%"}, {"measurement": "Percentage Present, Treated Section", "setting": "ants, 2 days after treatment", "value": 11.2, "unit": "%"}, {"measurement": "Percentage Present, Untreated Section", "setting": "ants, 2 days after treatment", "value": 88.8, "unit": "%"}, {"measurement": "Percentage Dead", "setting": "ants, 3 days after treatment", "value": 0, "unit": "%"}, {"measurement": "Percentage Present, Treated Section", "setting": "ants, 3 days after treatment", "value": 7.5, "unit": "%"}, {"measurement": "Percentage Present, Untreated Section", "setting": "ants, 3 days after treatment", "value": 92.5, "unit": "%"}, {"measurement": "Percentage Dead, Average", "setting": "[1]", "value": 0, "unit": "%"}, {"measurement": "Percentage Present, Treated Section, Average", "setting": "[1]", "value": 7.5, "unit": "%"}, {"measurement": "Percentage Present, Untreated Section, Average", "setting": "[1]", "value": 92.5, "unit": "%"}]}
